Experimental data reported in patent US20060183773A1, “Uses of methylphenidate derivatives” (priority 2005, published 2006).

Columns and labels:
Format in all cases: cell-based, human
c-Jun = c-Jun in VEGF-treated HUVECs, TransAM AP-1 assay; settings: VEGF 10 ng/ml + 10 μM, control 0.204, VEGF only 0.261
Description: The flasks were incubated overnight at 37° C., 5% CO2 After this incubation, vascular endothelial growth factor (VEGF) (obtained from Sigma) was added to give a final concentration 10 ng/ml, and the flasks were incubated for an additional 30 minutes.
The amount of c-Jun was determined using a TransAM™ AP-1 Family Transcription Factor Assay Kit and a Nuclear Extract Kit from Active Motif North America, Carlsbad, Calif., according to manufacturer's instructions. Briefly, a nuclear extract of the cells was prepared using the Nuclear Extract Kit. Then, the nuclear extract was added to the wells of a 96-well plate in which oligonucleotide containing a TPA-responsive element (TRE) was immobilized. Activator protein-1 (AP-1) dimers contained in the nuclear extract were bound to this oligonucleotide and were detected using an antibody specific for c-Jun. A secondary antibody conjugated to horseradish peroxidase (HRP) was next added to provide a colorimetric readout that was quantified by spectrophotometry (measurement at 450 nm).

IL-8 [1] = test: IL-8 release by TNFα-stimulated HUVECs, ELISA; settings: 10 ng/ml TNFα + 10 μM; 18 hours; TNFα + water 35572
Description: Passage 4 HUVECs, human source lot number 8710 (obtained from ATCC), were put into the wells of a 24-well tissue culture plate at 5,000 cells/well in EGM-2 medium (obtained from Cambrex) and cultured for 72 hours at 37° C. and 5% CO2. […] After incubation for 1 hour at 37° C. and 5% CO2, TNFα (obtained from Pierce) was added to give a final concentration of 10 ng/ml, and the cells were incubated for an additional 18 hours at 37° C. and 5% CO2. After this incubation, the supernatants were collected, and the amount of IL-8 in the supernatants determined by ELISA as described in Example 4.

NFκB [2] = test: Activated NFκB in VEGF-treated HUVECs, TransAM assay; settings: VEGF 10 ng/ml + 10 μM, control 0.070, VEGF only 0.111
Description: Passage 5 HUVECs, human source lot number 8750 (obtained from ATCC), were grown to confluence in 25 cm^2 flasks in EGM-2 medium. The following additives were added to the flasks (total volume of 5 ml/flask) in EGM-2 medium containing 2% FCS, GA1000 (gentamycin), heparin and ascorbic acid (all from Cambrex): 1 μg/ml of the compound of formula II (Cpd II); 5 μg/ml Cpd II; 15 μg/ml of Cpd II; 15 μg/ml methylphenidate (MP); or 10 μM LY 294002. The flasks were incubated overnight at 37° C., 5% CO2 After this incubation, vascular endothelial growth factor (VEGF) (obtained from Sigma) was added to give a final concentration 10 ng/ml, and the flasks were incubated for an additional 30 minutes.
(§1) Then, the amount of NFκB was determined using a TransAM™ NFκB p65/NFκB p50 Transcription Factor Assay Kit and a Nuclear Extract Kit from Active Motif North America, Carlsbad, Calif., according to the manufacturer's instructions. Briefly, a nuclear extract of the cells was prepared using the Nuclear Extract Kit. Then, the nuclear extract was added to the wells of the 96-well plate of the TransAM™ kit. Oligonucleotide containing an NFκB consensus binding site was immobilized in the wells, and the activated NFκB contained in the nuclear extract was bound to the oligonucleotide. Then, an antibody directed against the NFκB p65 or p50 subunit was added, and the NFκB complex bound to the oligonucleotide was detected. A secondary antibody conjugated to horseradish peroxidase (HRP) was next added to provide a colorimetric readout that was quantified by spectrophotometry (measurement at 450 nm).

NFκB [3] = test: Activated NFκB in TNFα- or VEGF-treated HIAECs, TransAM assay; settings: TNFα + LY 294002, control 0.174, TNFα only 0.881
Description: as §1
Passage 8 (human iliac artery endothelial cells (HIAECs) (obtained from ATCC; catalog no. CC-2545) were grown to confluence in 25 cm^2 flasks in EGM-2 medium. Eighteen hours prior to the experiment, the medium was replaced with EGM-2 medium containing 0.1% FCS plus heparin, GA1000 (gentamycin) and bovine pituitary extract (all from Cambrex) to place the cells in a resting state. To perform the experiment the medium was aspirated from the flasks, and the following additives were added to the flasks in fresh medium (total volume of 5 ml/flask): 15 μg/ml of the compound of formula II (Cpd II) or 10 μM LY 294002. The flasks were incubated 2 hours at 37° C., 5% CO2 After this incubation, VEGF or TNFα was added to give a final concentration 10 ng/ml, and the flasks were incubated for an additional 30 minutes. Then, the amount of NFκB was determined using a TransAM™ NFκB p65/NFκB p50 Transcription Factor Assay Kit and a Nuclear Extract Kit from Active Motif North America, Carlsbad, Calif., as described in Example 9.

TCR-positive cells = test: Annexin staining of TCR-positive PBL, flow cytometry (cell death); settings: PHA 5 μg/ml plus 10 μM dexamethasone; printed as decreased from 84%
Description: After this incubation, PHA was added to give a final concentration of 5 μg/ml, and the cells were incubated for an additional 72 hours at 37° C., 5% CO2. All cultures were performed in triplicate. Cells were then removed by centrifugation at 1000 rpm for 10 minutes.
The cells were further analyzed by flow cytometry. Annexin was used to determine populations of dead or dying cells. Anti-CD69 antibody was used to establish the level of cellular activation. Antibody to T-cell receptor αβ (TCR) was also used. Recombinant Annexin 5 (PE and FITC conjugates) and the antibodies were all purchase from Caltag (Burlingham, Calif.) and used following the manufacturer's recommendations.

TNFα = TNFα release from LPS-stimulated THP-1 monocytes, ELISA; settings: THP-1, LPS 200 ng/ml, 24 hours; Cpd II 15 μg/ml, Dex 10 μM; LPS alone 138.655
Description: (§2) THP-1 is a monocyte cell line obtained from American Type Culture Collection (ATCC) (catalog no. TIB-202). […] After 1 hour, lipopolysaccharide (LPS) (obtained from Sigma) was added to the cultures to give a final concentration of 200 ng/ml, and the cells were then incubated for an additional 4 hours or for an additional 24 hours. After the incubation, the cells were centrifuged, and the supernatants were collected. The concentrations of IL-8 and TNFα in the supernatants were determined by ELISA.
The TNFα ELISA was performed as described in Example 2.

IL-8 [4] = test: IL-8 release from LPS-stimulated THP-1 monocytes, ELISA; settings: THP-1, LPS 200 ng/ml, Cpd II 15 μg/ml, Dex 10 μM
Description: as §2
The concentrations of IL-8 in the supernatants were determined by ELISA performed as described in Example 4.

Row | Structure (SMILES) | Mean OD 450 nm (c-Jun) (c-Jun) | Mean IL-8 (IL-8 [1]) [pg/mL] | Mean OD 450 nm (NFκB) (NFκB [2]) | Mean OD 450 nm (NFκB) (NFκB [3]) | Annexin staining of TCR-positive cells (TCR-positive cells) [%] | Mean TNFα Concentration (TNFα) [pg/mL] | % Inhibition (IL-8) (IL-8 [4]; 4 hours) [%] | % Inhibition (IL-8) (IL-8 [4]; 24 hours) [%] | Mean IL-8 Concentration (IL-8 [4]; 24 hours, LPS alone 6653.20) [pg/mL]
1 | O=c1cc(N2CCOCC2)oc2c(-c3ccccc3)cccc12 [LY 294002, reference compound] | 0.340 ± 0.020 | 9196.1 ± 150.97 | 0.138 ± 0.008 | 0.810 ± 0.007 |  |  |  |  | 
2 | C[C@@H]1C[C@H]2[C@@H]3CCC4=CC(=O)C=C[C@]4(C)[C@@]3(F)[C@@H](O)C[C@]2(C)[C@@]1(O)C(=O)CO [dexamethasone, reference compound] |  |  |  |  | 48 | 94.759 ± 8.755 | 26 | 66 | 2300.00 ± 283.41
